Results as given in patent US20140113958A1, “HCV Combination Therapy” (priority 2011, published 2014).
Several values for one entry are separate records, joined by “and”; a condition that tells them apart may be missing. Identical values can stand only once. Like-named read-outs stand apart in the source and are kept apart here.

Key:
[1] = system: HCV genotype Ib replicon (I389luc-ubi-neo/NS3-3′/ET) in Huh-luc/neo-ET cells; assay type: cell-based; conditions: for Efficacy, Antagonism vol / Interaction: second drug in combination with miravirsen (SPC3649); for Efficacy, Antagonism vol: 95% confidence interval, median (≧3 experiments) or individual values; for Interaction: overall
Procedure: The anti-viral efficacy and cellular toxicity of non-transfected antimiR oligonucleotide in combination with approved and experimental anti-HCV therapeutics (e.g. NM283, 2′-C-methylcytidine, and/or VX-222) (or other NS5B polymerase inhibitors) was determined in the reporter cell line Huh-luc/neo-ET. This cell line harbors the persistently replicating I389luc-ubi-neo/NS3-3′/ET replicon containing the firefly luciferase gene-ubiquitin-neomycin phosphotransferase fusion protein and EMCV IRES driven NS3-5B HCV coding sequences containing the ET tissue culture adaptive mutations (E1202G, T1208I, and K1846T). Eight dilutions of non-transfected antimiR oligonucleotide (bracketing the calculated EC50) were evaluated in triplicate on duplicate sets of three plates with five dilutions of each of the control compounds (bracketing the calculated EC50). One set of plates was used for the determination of cellular toxicity and the other set of plates was used for the determination of anti-viral efficacy. The efficacy and toxicity results was quantified with firefly luciferase activity and XTT dye reduction, respectively, and the results of the assay is imported into the Prichard and Shipman MacSynergy II software program. The MacSynery II analysis includes calculation of the dose response of the two (or more) compounds when used alone followed by calculation of the expected additive level of antiviral inhibition or toxicity when the compounds are used together based on the individual dose response curves. The expected level of activity at each of the concentration data points was compared to the experimentally determined antiviral activity in the assay. The expected activity was subtracted from the realized activity, yielding a negative, zero or positive value. These values are plotted as a three dimensional representation of the data and the result is reported as a two-factor value, expressing the combined average above the expected level of activity (synergy volume) and the combined average below the expected level of activity (antagonism volume). Combination analysis was performed two or more times for each pair of test compound and control substance.
The reporter cell line Huh-luc/neo-ET was obtained from Dr. Ralf Bartenschlager (Department of Molecular Virology, Hygiene Institute, University of Heidelberg, Germany) by ImQuest BioSciences. This cell line harbors the persistently replicating 1389luc-ubi-neo/NS3-3′IET replicon containing the firefly luciferase gene-ubiquitinneomycin phosphotransferase fusion protein and EMCV IRES driven NS3-5B HCV coding sequences containing the ET tissue culture adaptive mutations (E 1202G, T12081, and KI846T). A stock culture of the Huh-luc/neo-ET was expanded by culture in DMEM supplemented with 10% FBS, 2 mM glutamine, penicillin (100 IU/mL)/streptomycin (100 f·Ig/mL) and IX nonessential amino acids plus I mg/ml G418. Prior to plating, the cells were split 1:4 and cultured for two passages in the same medium plus 250 f·Ig/mL G418. The cells were treated with trypsin and enumerated by staining with trypan blue and seeded into 96-well tissue culture plates at a cell culture density 5.0×10^3 cells per well in a volume of 85 f·IL per well and incubated at […] in an environment of 5% CO2 for 24 hours. Six plates were established for the determination of combination efficacy (EC50) and cytotoxicity (TC50) for each of the compound combinations (three plates each for efficacy and toxicity). Following the 24 hour incubation, eight 2-fold serial dilutions of SPC3649 in cell culture medium without G418 were prepared (final in well high test concentration of 1.20 μM to 2.40 μM) and added to the cells and five 2-fold or 5-fold serial dilutions of control compounds in cell culture medium without G418 were prepared and added to the cells.

HCV genotype 1 = test: Phase 2a clinical trial, miravirsen monotherapy; assay type: in vivo, human; conditions: for mean of the maximum HCV RNA decline from baseline: 5 weekly doses subcutaneously over 29 days, chronic HCV genotype 1 patients
Procedure: Thirty-six treatment-naïve chronic HCV genotype 1 infected patients were enrolled into 3 sequential dosing cohorts and received 5 weekly doses of miravirsen 3, 5, or 7 mg/kg (n=27) or placebo (n=9) subcutaneously over 29 days and were followed up until week 18.

cytochrome 450 = test: Metabolism by cytochrome 450 mechanisms; assay type: in vitro ADME
HCV = HCV RNA suppression in vivo
[2] = system: wild-type HCV genotype 1b replicon; test: Transient transfection replicon assay in Huh 7 cells (luciferase, 72 hours), wild-type; assay type: cell-based
[3] = system: HCV genotype 1b replicon NS5A Y93H; assay type: cell-based; conditions: EC50 mutant / EC50 wild-type; mean of two experiments (individual values)
Procedure: (§1) The in vitro antiviral of miravirsen was evaluated against wild-type HCV genotype 1b replicon and HCV genotype 1b replicons constructed to contain key amino acid substitutions in NS3 protease (A156T, R155K), NS5B polymerase (S282T, M423I) and NS5A protein (Y93H) in transient transfection assays utilizing Huh 7 cells. […] Huh 7 cells were transfected with either the wild-type or the mutant RNA constructs by electroporation. Luciferase activity was measured 72 hours after compound treatment and EC50 values determined from dose-response curves. Fold resistance was expressed as the ratio of the EC50 for mutant HCV replicon to the EC50 for wild-type HCV replicon.
(§2) The in vitro antiviral of miravirsen was evaluated against wild-type HCV genotype 1b replicon and HCV replicons constructed to contain key amino acid substitutions in NS3 protease (A156T, R155K), NS5B polymerase (S282T, M423I) and NS5A protein (Y93H) in transient transfection assays. […] Huh 7 cells were transfected with either the wild type or the mutant RNA constructs by electroporation. Luciferase activity was measured 72 hours after compound treatment and EC50 values determined from dose-response curves. Fold resistance was expressed as the ratio of the EC50 for mutant HCV replicon to the EC50 for wild-type HCV replicon. Results are expressed as the mean of two individual experiments. In an initial set of experiments, the standard protocol was modified by adding compounds 24 hours after electroporation. […] In a third experiment cells were pretreated with miravirsen for 24 hours before electroporation with wild-type RNA constructs to determine if preincubation could result in increased miravirsen antiviral activity.

[4] = system: HCV genotype 1b replicon NS5B M423I; assay type: cell-based; conditions: EC50 mutant / EC50 wild-type; mean of two experiments (individual values)
Procedure: as §1, §2

[5] = system: drug-resistant HCV genotype 1b replicons (NS3, NS5A, NS5B)
Procedure: as §1
The in vitro antiviral of miravirsen was evaluated against wild-type HCV genotype 1b replicon and HCV replicons constructed to contain key amino acid substitutions in NS3 protease (A156T, R155K), NS5B polymerase (S282T, M423I) and NS5A protein (Y93H) in transient transfection assays. […] Huh 7 cells were transfected with either the wild type or the mutant RNA constructs by electroporation. Luciferase activity was measured 72 hours after compound treatment and EC50 values determined from dose-response curves. Fold resistance was expressed as the ratio of the EC50 for mutant HCV replicon to the EC50 for wild-type HCV replicon. Results are expressed as the mean of two individual experiments. […]

[6] = compared with interferon alpha-2b
[7] = chronic HCV genotype 1 infected patients

CCC[C@H](NC(=O)[C@@H]1[C@H]2CCC[C@H]2CN1C(=O)[C@@H](NC(=O)[C@@H](NC(=O)c1cnccn1)C1CCCCC1)C(C)(C)C)C(=O)C(=O)NC1CC1 [Telaprevir, (1S,3aR,6aS)-2-[(2S)-2-[[(2S)-2-Cyclohexyl-2-(pyrazine-2-carbonylamino)acetyl]amino]-3,3-dimethylbutanoyl]-N-[(3S)-1-(cyclopropylamino)-1,2-dioxohexan-3-yl]-3,3a,4,5,6,6a-hexahydro-1H-cyclopenta[c]pyrrole-1-carboxamide]
overall antiviral interaction ([1]; in combination with ribavirin): inconclusive
Efficacy, Antag Vol ([1]; in combination with ribavirin, 95% confidence level, individual values): 0.00/−200.2 μM^2% and 37.5/−22.6; μM^2%
Efficacy, Antagonism vol [1]: 0/−3.2 μM^2%
Efficacy, Antagonism vol ([1]; listed as telaprevir): −3.22 μM^2%
Interaction [1]: Positive
Interaction ([1]; listed as telaprevir): positive interaction

5′-^mCs^ocsAs^otstsGs^oTs^ocsas^mCs^oas^mCs^ots^mCs^omC^o-3′ (CCATTGTCACACTCC; all phosphorothioate, sugars by position and methylation of C not given here; further chemistry not fully specified) [miravirsen]
mean of the maximum HCV RNA decline from baseline (HCV genotype 1; 3 mg/kg): 1.2 log10IU/mL
patients who achieved undetectable HCV RNA (HCV genotype 1; 5 mg/kg cohort): One
mean of the maximum HCV RNA decline from baseline (HCV genotype 1; 5 mg/kg): 2.9 log10IU/mL
patients who achieved undetectable HCV RNA (HCV genotype 1; 7 mg/kg cohort): four
mean of the maximum HCV RNA decline from baseline (HCV genotype 1; 7 mg/kg): 3.0 log10IU/mL
dose-limiting adverse events (HCV genotype 1; 3, 5 or 7 mg/kg): no dose-limiting adverse events
escape mutations in the HCV genome miR-122 binding sites (HCV genotype 1; 3, 5 or 7 mg/kg): no escape mutations were observed
emergence of viral resistance (HCV genotype 1; [7]): not seen
reduction in HCV RNA (HCV genotype 1; [7]): prolonged dose-dependent reductions in HCV RNA levels
safety and tolerability (HCV genotype 1; [7]): safe, well-tolerated
reduction in HCV RNA (HCV genotype 1; chronic HCV genotype 1 infected patients, listed as Miravirsen): dose-dependent reduction in HCV RNA that was prolonged well beyond the end of active therapy
HCV titre (HCV genotype 1; four week clinical trial to assess safety and tolerability): below detection
metabolism by cytochrome 450 mechanisms (cytochrome 450): not metabolized by cytochrome 450 mechanisms
HCV RNA suppression in vivo (HCV): long-lasting HCV RNA suppression without emergence of resistance
EC50 ([2]; Huh 7 cells preincubated with miravirsen 24 hours before electroporation with wild-type RNA, read-out: EC50): 25.6 µM
EC50 ([2]; wild-type HCV, transient transfection assays, read-out: average EC50): 36.7 µM
fold change in susceptibility, NS5A Y93H [3]: 0.9 (0.8, 0.9) fold
fold change in susceptibility, NS5B M423I [4]: 1.7 (2.3, 1.0) fold
fold changes in resistance ([5]; all drug-resistant HCV variants tested): less than 2 fold
antiviral activity against drug-resistant replicons ([5]; replicons resistant to NS3, NS5A and NS5B inhibitors): broad antiviral activity
overall antiviral interaction ([1]; in combination with ribavirin): apparent synergy
EC50 ([1]; previously reported against stable HCV cell lines, read-out: average EC50): 0.671 µM
EC50 ([1]; read-out: EC50 (+/− SD)): 0.67 µM
therapeutic index [6]: at least an order of magnitude greater than interferon alpha-2b
